Data published in patent US20160199500A1, “COMPOSITIONS COMPRISING VITAMIN B12 AND INTRINSIC FACTOR AND METHODS OF USE THEREOF” (Syracuse University, priority 2013, published 2016).

Key:
[1] = pre injection of 50 mg two minutes before an 125I-labeled conjugate, mice; cited from earlier work
[2] = test system: BeWo cells (cubilin receptor); experiment: Uptake and internalization in BeWo cells by confocal microscopy; type: cell-based; conditions: conjugates incubated with IF
cubilin (CUBN) = cubilin (CUBN) (Homo sapiens, UniProt O60494+P27352); conditions: binds CUB domains 5-8, Ca2+ dependent; read-out: Kd of IF-B12 for cubilin; cited from earlier work
Chain of cubilin (CUBN) (O60494 36-3623, species assumed): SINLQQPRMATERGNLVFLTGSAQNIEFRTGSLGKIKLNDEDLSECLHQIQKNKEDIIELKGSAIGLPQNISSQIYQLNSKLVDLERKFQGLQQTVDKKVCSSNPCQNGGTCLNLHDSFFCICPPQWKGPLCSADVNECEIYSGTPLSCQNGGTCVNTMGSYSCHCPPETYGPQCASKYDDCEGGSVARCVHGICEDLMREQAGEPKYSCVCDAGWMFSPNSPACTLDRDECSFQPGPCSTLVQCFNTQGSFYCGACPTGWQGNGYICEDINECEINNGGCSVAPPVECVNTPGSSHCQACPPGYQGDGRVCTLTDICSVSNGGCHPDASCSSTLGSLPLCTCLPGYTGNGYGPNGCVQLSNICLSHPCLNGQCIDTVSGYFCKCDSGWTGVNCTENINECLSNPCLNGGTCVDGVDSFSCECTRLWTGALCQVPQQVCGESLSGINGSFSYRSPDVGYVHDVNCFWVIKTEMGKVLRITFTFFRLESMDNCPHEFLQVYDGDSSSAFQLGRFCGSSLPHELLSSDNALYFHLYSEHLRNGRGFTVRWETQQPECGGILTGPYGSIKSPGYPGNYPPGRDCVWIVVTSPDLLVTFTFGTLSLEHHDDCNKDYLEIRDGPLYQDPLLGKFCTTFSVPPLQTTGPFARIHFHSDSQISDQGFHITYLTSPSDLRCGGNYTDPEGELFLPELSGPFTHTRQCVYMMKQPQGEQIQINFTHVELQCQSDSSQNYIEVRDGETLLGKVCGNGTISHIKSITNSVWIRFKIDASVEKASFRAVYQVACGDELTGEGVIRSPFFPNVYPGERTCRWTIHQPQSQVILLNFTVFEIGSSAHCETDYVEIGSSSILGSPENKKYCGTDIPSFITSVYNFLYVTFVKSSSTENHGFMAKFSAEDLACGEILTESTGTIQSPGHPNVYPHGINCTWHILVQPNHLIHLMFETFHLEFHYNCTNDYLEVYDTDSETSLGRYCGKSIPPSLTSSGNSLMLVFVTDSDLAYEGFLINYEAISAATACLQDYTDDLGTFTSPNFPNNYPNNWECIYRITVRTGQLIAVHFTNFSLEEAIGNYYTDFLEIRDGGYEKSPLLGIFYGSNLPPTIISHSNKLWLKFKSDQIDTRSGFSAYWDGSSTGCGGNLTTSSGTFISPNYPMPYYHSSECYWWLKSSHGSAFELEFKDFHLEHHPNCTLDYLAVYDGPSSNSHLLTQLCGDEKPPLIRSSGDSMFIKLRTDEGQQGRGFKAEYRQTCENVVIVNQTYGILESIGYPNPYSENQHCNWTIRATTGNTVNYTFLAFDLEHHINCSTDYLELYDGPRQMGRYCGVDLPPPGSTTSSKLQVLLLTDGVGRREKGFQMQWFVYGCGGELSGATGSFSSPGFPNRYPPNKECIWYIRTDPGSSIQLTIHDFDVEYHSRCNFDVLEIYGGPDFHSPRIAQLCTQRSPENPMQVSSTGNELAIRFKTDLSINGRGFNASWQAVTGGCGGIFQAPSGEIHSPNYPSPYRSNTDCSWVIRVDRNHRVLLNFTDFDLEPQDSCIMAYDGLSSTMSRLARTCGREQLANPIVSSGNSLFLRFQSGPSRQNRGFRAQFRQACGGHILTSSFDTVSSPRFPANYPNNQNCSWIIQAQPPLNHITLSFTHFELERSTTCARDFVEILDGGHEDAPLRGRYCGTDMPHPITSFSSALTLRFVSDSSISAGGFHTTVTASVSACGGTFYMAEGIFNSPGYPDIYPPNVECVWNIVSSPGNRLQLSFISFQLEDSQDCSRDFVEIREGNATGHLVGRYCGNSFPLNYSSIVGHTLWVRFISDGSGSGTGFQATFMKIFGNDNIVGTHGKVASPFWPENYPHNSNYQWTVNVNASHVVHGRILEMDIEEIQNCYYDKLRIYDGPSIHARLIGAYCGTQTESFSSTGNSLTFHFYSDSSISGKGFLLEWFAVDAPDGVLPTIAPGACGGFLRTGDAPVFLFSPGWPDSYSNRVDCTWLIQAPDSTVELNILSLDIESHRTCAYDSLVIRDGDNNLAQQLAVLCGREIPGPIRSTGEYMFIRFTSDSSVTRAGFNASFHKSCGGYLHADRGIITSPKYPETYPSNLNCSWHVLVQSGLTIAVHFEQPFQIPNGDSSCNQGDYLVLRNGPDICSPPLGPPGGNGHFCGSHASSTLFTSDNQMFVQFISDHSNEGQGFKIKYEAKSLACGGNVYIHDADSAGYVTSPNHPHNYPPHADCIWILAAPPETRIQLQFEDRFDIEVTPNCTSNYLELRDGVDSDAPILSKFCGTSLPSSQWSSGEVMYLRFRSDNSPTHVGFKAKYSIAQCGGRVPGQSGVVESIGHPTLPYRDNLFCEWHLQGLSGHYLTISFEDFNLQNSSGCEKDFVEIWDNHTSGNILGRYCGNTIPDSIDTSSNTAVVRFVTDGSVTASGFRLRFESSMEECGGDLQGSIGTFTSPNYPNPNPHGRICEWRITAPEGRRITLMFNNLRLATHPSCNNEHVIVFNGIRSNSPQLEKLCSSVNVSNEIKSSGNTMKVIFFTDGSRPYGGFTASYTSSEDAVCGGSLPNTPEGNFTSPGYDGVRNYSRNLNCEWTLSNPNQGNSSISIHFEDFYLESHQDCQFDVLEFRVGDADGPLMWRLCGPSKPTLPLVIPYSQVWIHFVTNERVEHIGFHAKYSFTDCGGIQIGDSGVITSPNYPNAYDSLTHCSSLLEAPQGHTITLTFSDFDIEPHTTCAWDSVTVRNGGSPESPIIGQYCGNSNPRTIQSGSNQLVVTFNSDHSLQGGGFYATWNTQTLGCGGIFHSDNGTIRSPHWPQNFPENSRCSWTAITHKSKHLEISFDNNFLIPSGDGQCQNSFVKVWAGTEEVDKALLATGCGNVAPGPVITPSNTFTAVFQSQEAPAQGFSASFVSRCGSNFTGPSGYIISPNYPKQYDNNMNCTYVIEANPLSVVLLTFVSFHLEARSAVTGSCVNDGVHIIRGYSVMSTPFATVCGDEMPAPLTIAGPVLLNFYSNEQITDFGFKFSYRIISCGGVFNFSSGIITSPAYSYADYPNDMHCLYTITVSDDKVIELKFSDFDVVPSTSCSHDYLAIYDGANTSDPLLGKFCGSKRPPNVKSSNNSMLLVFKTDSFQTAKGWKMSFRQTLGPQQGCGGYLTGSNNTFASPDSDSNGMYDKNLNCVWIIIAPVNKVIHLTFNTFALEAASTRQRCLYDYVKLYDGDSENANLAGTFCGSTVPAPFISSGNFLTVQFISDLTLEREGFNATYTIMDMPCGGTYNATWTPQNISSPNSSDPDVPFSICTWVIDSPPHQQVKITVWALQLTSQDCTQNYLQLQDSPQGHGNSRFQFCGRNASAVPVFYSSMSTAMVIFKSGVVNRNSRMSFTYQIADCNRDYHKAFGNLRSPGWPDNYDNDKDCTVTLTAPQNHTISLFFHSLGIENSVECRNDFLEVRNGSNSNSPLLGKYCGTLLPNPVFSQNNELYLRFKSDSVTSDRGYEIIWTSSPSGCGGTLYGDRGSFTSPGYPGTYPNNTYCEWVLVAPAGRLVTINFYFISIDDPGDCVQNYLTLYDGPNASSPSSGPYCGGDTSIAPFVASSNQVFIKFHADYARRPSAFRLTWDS
Chain of cubilin (CUBN) (P27352 19-417, species assumed): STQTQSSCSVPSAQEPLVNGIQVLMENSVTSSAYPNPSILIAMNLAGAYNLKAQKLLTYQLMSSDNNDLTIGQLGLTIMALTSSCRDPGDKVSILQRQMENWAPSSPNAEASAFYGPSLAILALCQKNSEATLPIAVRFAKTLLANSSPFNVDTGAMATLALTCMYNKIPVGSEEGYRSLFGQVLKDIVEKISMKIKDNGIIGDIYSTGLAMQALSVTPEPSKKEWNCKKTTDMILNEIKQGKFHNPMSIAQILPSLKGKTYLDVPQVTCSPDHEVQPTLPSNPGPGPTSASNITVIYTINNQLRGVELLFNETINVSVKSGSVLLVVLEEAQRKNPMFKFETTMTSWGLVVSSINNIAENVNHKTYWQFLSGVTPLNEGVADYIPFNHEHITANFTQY

Compound: NCCCC[C@H](N)C(=O)O [1-lysine, L-lysine]
- decrease of kidney uptake [1]: approximately 95%

Compound: IF405: intrinsic factor tagged with Alexa Fluor 405
- binding, uptake or internalization in BeWo cells [2]: shows uptake

Compound: IF-B12: complex of intrinsic factor, a 50 kDa protein, bound to B12
- Kd (cubilin (CUBN)): ~5 nM
